Measured values: patent US11945787B2, “Substituted imidazoles for preventing and/or treating cell or tissue necrosis” (Ela Pharma Ltd, priority 2015, dated 2024)
Where a SMILES comes first, the peptide text is derived from it. The star is where a group is joined. MeOSuc = COC(=O)CCC(=O)*; CH2Cl = ClC*

Assays:
[1] = test system: PC12 cells; assay: KCN-induced necrosis of PC12 cells, LDH release; assay type: cell-based, rat; settings: for inhibition at 0.0001 µM / inhibition at 0.001 µM / inhibition at 0.01 µM / inhibition at 0.1 µM / inhibition at 1 µM: Rattus norvegicus, PC-12, 5 h, KCN, PC12, LDH release (Table 5); for inhibition at 0.0001 µM: 0.1 nM, read-out: % protection at 0.1 nM; for inhibition at 0.001 µM: 1 nM, read-out: % protection at 1 nM; for inhibition at 0.01 µM: 10 nM, read-out: % protection At 10 nM; for inhibition at 0.1 µM: read-out: % protection at 0.1 μM; for inhibition at 1 µM: read-out: % protection at 1 μM
Method: The rat pheochromocytoma PC12 cell line was propagated in DMEM medium (Beit Haemek, Israel), supplemented with 5% heat-inactivated calf serum, 10% heat-inactivated horse serum, 2 mM L-glutamine, 100 U/ml penicillin and 100 μg/ml streptomycin. PC12 cells in logarithmic phase were seeded at a concentration of 1.2×10^5/well in 96-well plates and incubated overnight.
Thereafter, the cells were washed twice and maintained in RPMI-1640 (U-937cells) and DMEM (PC-12 cells) glucose-free medium, supplemented with 2 mM pyruvate and 10% dialyzed FCS for one hour. Then cells were treated with or without KCN (Merck, Germany) at the indicated concentrations for 7 hours (U-937 cells), or for 5 hours (PC12 cells).
Elastase inhibitors II (MeOSuc-AAPA-CMK) and elastase inhibitor III (MeOSuc-AAPV-CMK) were purchased from Calbiochem-Novabiochem, USA. Compound Gly-Phe diazomethylketone was purchased from MP Biomedicals, USA. All the compounds disclosed in Table 1 hereinabove were purchased from ChemDiv, San Diego, CA. The compounds were dissolved in DMSO and were administered 30 min before addition of the cell death inducer. The final concentration of DMSO, added to all samples, was 0.1%, which had no effect by itself siRNA and cell transfection
The amount of LDH released from lysed cells is a sensitive measure of cell death. Necrotic cell death was measured in 96-well plates using Promega CytoTox 96 LDH assay kit. LDH content from the cells lysed in 0.1% Triton X-100 for 10 min was used as an index of total LDH. The LDH released in culture medium was used as an index of necrotic cell death and the percentage from total LDH was calculated. The protection by the inhibitor was calculated based on comparing percentage of LDH release in the presence and in the absence of the inhibitor. The inhibitors were also added to totals, blanks and controls. Absorbance at 490 nm was measured by ELISA reader (BioTec).
These compounds were tested for their ability to inhibit necrosis induced by KCN in PC12 cells. The necrotic mode of cell death in this system was validated as previously described. PC12 cells were challenged with KCN as described above. The protective results of the compounds against KCN-induced necrosis assessed using LDH release method are shown below in Table 5. The IC50 values of these inhibitors is in the range of tens to single nanomolar.

[2] = test system: elastase-like activity; assay: Elastase-like activity in lysates of KCN-treated U-937 cells (MAAPV substrate); assay type: biochemical, human; settings: treatment of intact cells
[3] = test system: PC12 cells; assay: Rescue of KCN-treated PC12 cells, XTT viability up to 48 h; assay type: cell-based, rat; settings: 5 h KCN, then full DMEM 24 or 48 hours; FIG. 7C
[4] = test system: C57BL/6J mice, closed head trauma; assay: Closed head injury (traumatic brain injury) in mice; assay type: in vivo, mouse
Method: The closed head injury method was used to determine the effect of the elastase inhibitor on the development of brain necrosis and on the neurological status assessed using the neurological severity score (NSS). NSS test was performed 1 hour after trauma. During NSS test, various reflexes, ability to move, beam balance, beam walk and other behavior parameters like seeking and exiting from a cycle were monitored. Development of necrosis was measured by assessing necrotic space in brain slices stained with 2,3,5-triphenyl-2H-tetrazolium chloride (TTC).
C57BL/6J mice weighing 40+4 g (mean±SD) were used in the study. A weight-drop device was used to deliver a shock to the scull resulting in a controlled cerebral injury. Impact was delivered by a silicone-coated 5 mm metal tip extruding from a platform that falls down a frame. This model of cranial injury has been used in previous studies [Feldman Z et al., J Neurosurg (1995) 83:1060-1066; Shapira Y et al., J Neurosurg Anesthesiol (1995) 7:17-25].). All animal procedures and care techniques were approved by the Ben-Gurion University of the Negev Committee for the Ethical Care and Use of Animals in Research.
Mice were prepared for surgery by anesthetization with isoflurane and allowed to breathe spontaneously. Maintenance of adequate anesthesia for the experimental procedure was confirmed by loss of corneal reflexes. Once the corneal reflexes were abolished, a midline scalp incision was made and the scalp and underlying muscles were moved laterally. Closed head trauma (CHT) was delivered to the skull over the frontal portion of the left cerebral hemisphere. 1 minute after the trauma 100 μg of elastase inhibitor II or III in its vehicle (DMSO solution), were injected intracerebraspinaly by direct delivery into the cisterna magna. The vehicle itself was previously found to have no effect.
In addition to the wild type C57BL/6J mice, neutrophil elastase knockout mice strain B6.129X1-Elane were also examined. All procedures were approved by the Ethics Committee of Ben-Gurion University of Negev.

[5] = test system: Balb/c mice, myocardial ischemia/reperfusion; assay: Myocardial ischemia/reperfusion in mice; assay type: in vivo, mouse; settings: 30 mg/kg IV 20 min before ischemia and at reperfusion; 30 min ischemia, 6 h reperfusion
Method: Male Balb/c mice (20-25 g; Charles River; Milan; Italy) were housed in a controlled environment and provided with standard rodent chow and water.
Mice were subjected to 30 minutes of myocardial ischemia and 6 hours of reperfusion, using published methodologies (Yet et al, 2001). Study groups consisted of sham, vehicle control, and inhibitor (n=8/group, see below). Briefly, mice were anesthetized with pentobarbital sodium (60 mg/kg body weight) with additional doses given as needed to maintain anesthesia. Mice were intubated and mechanically ventilated with 100% oxygen. Mice received a first IV dose of the active inhibitor 1-(2-(4-methylpiperazin-1-yl)-4,5-dihydro-1H-imidazol-1-yl)propan-1-one (M059-0891) (30 mg/kg) and their chest was opened. […] The area of necrosis, as a % of AAR was quantified. […]
After the reperfusion period, 1 mL/kg of a 4% thioflavin S solution is injected IV in order to delineate the no-reflow area. […] The areas of ischemic and nonischemic regions are computed and expressed as a percentage of the slice, as are the % of necrotic and non-necrotic tissue. […] AAR (unstained blue area) is expressed as a percentage of the LV mass. The extent of necrosis is calculated as a percentage of the LV mass, and the infarct size expressed as a percentage of the AAR (infarct size=extent of necrosis/extent of AAR).

[6] = test system: C57BL/6J mice, acetaminophen hepatotoxicity; assay: APAP-induced liver toxicity in mice; assay type: in vivo, mouse; settings: IP 4 hours after APAP 300 mg/kg; measured 24 hours; dose dependent
Method: Wild type C57BL/6J mice weighing 23+3 grams were used, 6 mice per treatment. The mice were obtained from Harlan (Israel). All animal procedures and care techniques were approved by the Ben-Gurion University of the Negev Committee for the Ethical Care and Use of Animals in Research. Mice were fast for 16h prior to administration of a single intraperitoneal (i. p.) dose of acetaminophen (N-acetyl-p-aminophenol) APAP (300 mg/kg). 4 hours after the APAP injection, the mice were injected i. p. with the tested compound, dissolved in vehicle (20% DMSO in PBS). The control mice were injected with the vehicle only. 24h after APAP injection, the mice were sacrificed and blood collected from the heart. Heparin was used as an anti-clotting additive for plasma collection. The plasma samples were centrifuged at 4000 g at room temperature for 10 min. The supernatant was collected for measurement of ALT and AST levels. The enzyme levels were measured with an autoanalyzer in Soroka's Biochemistry Medical Center.

[7] = test system: U-937 cells; assay: siRNA transfection, KCN-induced necrosis of U-937 cells, LDH release; assay type: cell-based, human; settings: U-937, 7 hours KCN; FIG. 4A
[8] = test system: PC12 cells; assay: siRNA transfection, KCN-induced necrosis of PC12 cells, LDH release; assay type: cell-based, rat; settings: PC12, 5 hours KCN; FIG. 4C
[9] = test system: elastase-like activity; assay: Elastase-like activity in lysates of siRNA-treated cells exposed to KCN; assay type: cell-based; settings: KCN 10 mM 30 minutes; FIG. 5A
[10] = test system: Cathepsin C; assay: Cathepsin C activity in lysates of siRNA-treated cells exposed to KCN; assay type: cell-based; settings: KCN 10 mM 30 minutes; FIG. 5B

COC(=O)CCC(=O)N[C@@H](C)C(=O)N[C@@H](C)C(=O)N1CCC[C@H]1C(=O)N[C@@H](C)C(=O)CCl [EI II, MeOSuc-AAPA-CMK] (MeOSuc-AAPA-CH2Cl)
KCN-induced necrotic cell death assessed by LDH release ([1]; PC12, KCN 5 hours, FIGS. 6, 7A-B): inhibited in a dose dependent manner
inhibition of necrosis induced by KCN at high concentrations ([1]; up to 300 μM): significantly inhibited necrosis
effect of inhibitor by itself on PC-12 cells ([1]; up to 300 μM, without KCN): inactive by themselves
induction of elastase-like enzymatic activity in intact cells [2]: abrogated the induction
cell viability (XTT) after KCN treatment [3]: protective effect
neurological severity score (NSS) ([4]; 100 μg into cisterna magna 1 min after trauma, 1 hour post injury): significantly reduce neurological damage
space of necrotic tissue, TTC staining ([4]; 100 μg into cisterna magna, untreated traumatized 50%): 25 % of the damaged hemisphere

CCC(=O)N1CCN=C1N1CCN(C)CC1 [M059-0891, 1-(2-(4-methylpiperazin-1-yl)-4,5-dihydro-1H-imidazol-1-yl)propan-1-one]
inhibition at 0.0001 µM [1]: 25%
inhibition at 0.001 µM [1]: 36%
inhibition at 0.01 µM [1]: 55%
inhibition at 0.1 µM [1]: 84%
inhibition at 1 µM [1]: 85%
necrosis and infarct size [5]: significant reduction

O=C(c1csc(N2CCCCC2)n1)N1CCCC1 [Z601-4253, (2-(piperidin-1-yl)thiazol-4-yl)(pyrrolidin-1-yl)methanone]
inhibition at 0.0001 µM [1]: 29%
inhibition at 0.001 µM [1]: 34%
inhibition at 0.01 µM [1]: 61%
inhibition at 0.1 µM [1]: 74%
inhibition at 1 µM [1]: 100%
ALT level in blood [6]: significantly reduced
AST level in blood [6]: significantly reduced

siRNA for CELA1: siRNA for CELA1, CGGCAACATGCTGGTCCTTTA (SEQ ID NO: 2), Qiagen (listed as DNA, chemistry not given here)
protection against KCN-induced necrosis, LDH release [7]: partial protection
protection against cyanide induced cell death, LDH release [8]: significant protective effect
elastase-like activity of cell lysates [9]: stable and significant decrease
Cathepsin C activity of cell lysates [10]: no effect

siRNA for CELA3A: siRNA for CELA3A, CTGCCTTTGGCTGCAACTTCA (SEQ ID NO: 3), Qiagen (listed as DNA, chemistry not given here)
protection against KCN-induced necrosis, LDH release [7]: partial protection
protection against cyanide induced cell death, LDH release [8]: significant protective effect
elastase-like activity of cell lysates [9]: stable and significant decrease
Cathepsin C activity of cell lysates [10]: no effect

siRNA for Cathepsin C: siRNA for Cathepsin C silencing, ATGATCTGCATCAGTTGTAAA (SEQ ID NO: 1), Qiagen (listed as DNA, chemistry not given here)
protection against KCN-induced necrosis, LDH release [7]: protective effect
protection against cyanide induced cell death, LDH release [8]: significant protective effect
Cathepsin C activity of cell lysates [10]: stable and significant decrease
